Reference: patent US9365572B2, “PI3K and/or mTOR inhibitor” (XUANZHU PHARMA CO., LTD., priority 2012, dated 2016)

Key:
[1] = target: Muscarinic M2 (Homo sapiens (Human), UniProt P08172); assay: Radioligand binding assay No. 252710; conditions: test substance 10 μM, read-out: Inhibitory rate (%), Muscarinic M2
[2] = target: Serotonin (5-Hydroxytryptamine) 5-HT2B (Homo sapiens (Human), UniProt P41595); assay: Radioligand binding assay No. 271700; conditions: test substance 10 μM, read-out: Inhibitory rate (%), Serotonin (5-Hydroxytryptamine) 5-HT2B
[3] = target: Opiate δ1 (OP1, DOP) (Homo sapiens (Human), UniProt P41143); assay: Radioligand binding assay No. 260130; conditions: test substance 10 μM, read-out: Inhibitory rate (%), Opiate δ1 (OP1, DOP)
[4] = tested on: kinases listed in Table 3; assay: Kinase selectivity, whole panel of Table 3; format: biochemical; conditions: summary in words
Description: Object: In this assay, the inhibitory activity of the test substance on the kinases listed in Table 3 was determined, and therefore the selectivity of the present compound was determined.
Except for the BRAF V600E kinase in Table 3, the Mobility shift assay was used for other kinases.
• 1.1 1-fold kinase buffer without MnCl2: 50 mM HEPES, pH 7.5, 0.0015% Brij-35, 10 mM MgCl2, 2 mM DTT. • 1.2 1-fold kinase buffer with MnCl2: 50 mM HEPES, pH 7.5, 0.0015% Brij-35, 10 mM MgCl2, 10 mM MnCl2, 2 mM DTT. • 1.3 Termination solution: 100 mM HEPES, pH 7.5, 0.0015% Brij-35, 0.2% Coating Reagent#3, 50 mM EDTA. • 1.4 2.5-fold kinase solution: The kinase was added to the 1-fold kinase buffer to form a 2.5-fold kinase solution. • 1.5 2.5-fold substrate solution: FAM fluorescence-labelled polypeptide and ATP were added to the 1-fold kinase buffer to form a 2.5-fold substrate solution. 2. Preparation of 5-fold compound
The final test concentration of the compound was 10 μM at maximum. Firstly, a 50-fold concentration (i.e. 500 μM) was prepared with 100% DMSO. The compound was diluted with 100% DMSO by 5 folds at 5 concentrations (successively 500 μM, 100 μM, 20 μM, 4 μM, and 0.8 μM). […]
• 3.1 To the 384-well reaction plate was added 5-fold compound dissolved in 10% DMSO at 5 μl/well. • 3.2 To the 384-well reaction plate was added 2.5-fold kinase solution at 10 μl/well. […] The conversion was read from Caliper. […]

[5] = target: Nicotinic Acetylcholine α1, Bungarotoxin (Homo sapiens (Human), UniProt P02708+P07510+Q07001); assay: Radioligand binding assay No. 258700; conditions: read-out: Inhibitory rate (%), Nicotinic Acetylcholine α1, Bungarotoxin
[6] = tested on: Glutamate, Kainate; assay: Radioligand binding assay No. 232700; conditions: test substance 10 μM; rat
[7] = target: Dopamine D2S (Homo sapiens (Human), UniProt P14416); assay: Radioligand binding assay No. 219700; conditions: test substance 10 μM, read-out: Inhibitory rate (%), Dopamine D2S
Sequence of Dopamine D2S (P14416 other isoform, or with tags, fused parts or gaps): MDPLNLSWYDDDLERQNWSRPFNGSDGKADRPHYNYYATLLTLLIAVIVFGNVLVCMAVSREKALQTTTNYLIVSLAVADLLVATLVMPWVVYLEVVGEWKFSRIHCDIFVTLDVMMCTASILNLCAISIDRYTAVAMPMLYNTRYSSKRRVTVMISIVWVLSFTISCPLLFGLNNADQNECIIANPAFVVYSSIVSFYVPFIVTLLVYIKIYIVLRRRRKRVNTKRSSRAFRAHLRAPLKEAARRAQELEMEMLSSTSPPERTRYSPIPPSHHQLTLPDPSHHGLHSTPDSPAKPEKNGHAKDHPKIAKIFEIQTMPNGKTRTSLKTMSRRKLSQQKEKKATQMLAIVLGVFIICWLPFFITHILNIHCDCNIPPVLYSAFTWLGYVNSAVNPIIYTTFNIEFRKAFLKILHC

Sequence of Muscarinic M2 (P08172 whole entry): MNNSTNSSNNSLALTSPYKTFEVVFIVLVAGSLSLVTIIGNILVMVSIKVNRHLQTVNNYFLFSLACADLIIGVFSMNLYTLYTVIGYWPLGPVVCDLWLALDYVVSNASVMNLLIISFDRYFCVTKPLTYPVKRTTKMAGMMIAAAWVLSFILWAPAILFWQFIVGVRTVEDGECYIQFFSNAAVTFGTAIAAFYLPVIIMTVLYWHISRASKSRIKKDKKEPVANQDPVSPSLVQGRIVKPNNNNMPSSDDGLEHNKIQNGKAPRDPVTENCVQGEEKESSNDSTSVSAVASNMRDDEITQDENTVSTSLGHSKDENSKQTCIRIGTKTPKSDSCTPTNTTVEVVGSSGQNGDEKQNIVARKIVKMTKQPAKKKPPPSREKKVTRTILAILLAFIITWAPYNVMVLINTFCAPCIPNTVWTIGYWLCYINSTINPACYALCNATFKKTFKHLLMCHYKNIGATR
Sequence of Serotonin (5-Hydroxytryptamine) 5-HT2B (P41595 whole entry): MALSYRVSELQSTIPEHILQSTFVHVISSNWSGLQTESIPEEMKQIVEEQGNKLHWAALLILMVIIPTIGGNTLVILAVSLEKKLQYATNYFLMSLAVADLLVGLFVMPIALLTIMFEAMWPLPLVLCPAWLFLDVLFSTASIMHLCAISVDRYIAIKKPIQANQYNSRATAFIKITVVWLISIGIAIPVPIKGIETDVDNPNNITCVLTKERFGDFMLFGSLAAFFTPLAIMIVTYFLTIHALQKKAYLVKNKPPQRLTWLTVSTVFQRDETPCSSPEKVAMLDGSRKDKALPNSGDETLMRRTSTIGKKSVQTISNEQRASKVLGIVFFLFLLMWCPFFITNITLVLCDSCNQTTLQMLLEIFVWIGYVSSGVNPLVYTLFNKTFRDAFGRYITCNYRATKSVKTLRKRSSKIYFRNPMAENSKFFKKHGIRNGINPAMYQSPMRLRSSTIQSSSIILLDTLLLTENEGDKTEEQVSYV
Sequence of Opiate δ1 (OP1, DOP) (P41143 whole entry): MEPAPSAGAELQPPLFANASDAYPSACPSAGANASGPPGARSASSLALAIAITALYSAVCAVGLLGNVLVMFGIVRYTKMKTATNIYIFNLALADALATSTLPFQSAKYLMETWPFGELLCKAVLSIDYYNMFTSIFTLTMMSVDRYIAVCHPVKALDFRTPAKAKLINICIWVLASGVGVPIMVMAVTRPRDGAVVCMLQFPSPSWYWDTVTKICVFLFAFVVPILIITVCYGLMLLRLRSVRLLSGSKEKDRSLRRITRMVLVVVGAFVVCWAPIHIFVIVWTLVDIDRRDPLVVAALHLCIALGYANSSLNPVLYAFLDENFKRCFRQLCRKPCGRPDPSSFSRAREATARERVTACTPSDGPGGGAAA

Nc1ccc(-c2ccc3ncc4c(=O)[nH]c(=O)n(-c5cccc(C(F)(F)F)c5)c4c3n2)cn1 [Compound 5, 9-(6-aminopyridin-3-yl)-1-(3-(trifluoromethyl)phenyl)pyrimido[5,4-c][1,5]naphthyridine-2,4(1H,3H)-dione]
inhibition at 10 µM [1]: -4% | inhibition at 10 µM [2]: 13% | inhibition at 10 µM [3]: 4% | inhibitory activity for the kinases listed in Table 3 [4]: no inhibitory activity | inhibition at 10 µM [5]: 4% | Inhibitory rate (%), Glutamate, Kainate [6]: 35% | inhibition at 10 µM [7]: 14%
